Assay results taken from patent US12377104B1, “Methods for treating a fatty liver disease” (Madrigal Pharmaceuticals, Inc., priority 2024, dated 2025).

How the values were obtained:
Format in all cases: in vivo, human
[1] = Excretion after 100 mg radio-labeled oral dose
Source text: A metabolite MGL-3623 accounted for 3.3% and 16% of the dose recovered in feces and urine, respectively.

[2] = MAESTRO-NASH: metabolic factors (heart rate, body weight, blood pressure) at week 52; settings: for Body weight, LS mean % CFB / Body weight, LS mean % CFB difference from PBO / DBP, LS mean % CFB / DBP, LS mean % CFB difference from PBO / Glucose, LS mean % CFB / Glucose, LS mean % CFB difference from PBO / HOMA-IR, LS mean % CFB / HOMA-IR, LS mean % CFB difference from PBO / HbA1c, LS mean % CFB / HbA1c, LS mean % CFB difference from PBO / Heart rate (electrocardiogram), LS mean % CFB / Heart rate (electrocardiogram), LS mean % CFB difference from PBO / Insulin, LS mean % CFB / Insulin, LS mean % CFB difference from PBO / SBP, LS mean % CFB / SBP, LS mean % CFB difference from PBO: week 52
[3] = system: adults with biopsy-confirmed NASH and fibrosis stage F1B, F2, or F3; experiment: MAESTRO-NASH phase 3: liver biopsy end points at week 52
Procedure: A phase 3 trial was conducted involving adults with biopsy-confirmed NASH and a fibrosis stage of F1B, F2, or F3 (stages range from F0 [no fibrosis] to F4 [cirrhosis]).
Randomization was performed with the use of an interactive Webresponse system. Patients were stratified according to status with respect to type 2 diabetes (presence or absence) and fibrosis stage (F1, F2, or F3). Throughout the trial, patients received nutrition and exercise counseling according to current recommendations. Patients were unaware of the trial-group assignments, as were site personnel, personnel of contract research organizations, and sponsor personnel who were conducting the trial, administering the investigational product, and performing clinical assessments. Selected persons were aware of the trial-group assignments to facilitate dispensation of resmetirom or placebo. All trial personnel were unaware of the results of postbaseline tests that could reveal the trial-group assignments, including levels of total and free thyroxine (T4), sex hormone-binding globulin, and lipids as well as magnetic resonance imaging proton density fat fraction (MRI-PDFF).
Screening biopsy results were used as baseline values for histologic variables, and a second biopsy was performed at week 52. Biopsy specimens on glass slides were assessed centrally by two independent expert pathologists (the second and third authors) to determine the NAFLD activity score and fibrosis stage (according to NASH Clinical Research Network criteria). For the primary analysis, all screening or baseline biopsy specimens and week 52 biopsy specimens on glass slides were reread independently by both pathologists in large unpaired groups of screening or baseline biopsy specimens (50 to 100 slides per group, spiked with biopsy specimens obtained from patients who had screening failure) or a separate matched set of week 52 biopsy specimens (50 to 100 slides per group). The pathologists were unaware of the trial-group assignments, patient characteristics, and each other's assessments. A consensus review was conducted as a supportive analysis wherein the two pathologists read blinded (to time of biopsy and identification code) digitized images for cases in which there was disagreement on the primary read with respect to response status for the two primary end points or a reduction in fibrosis by at least two stages. Only the NAFLD activity scores or fibrosis components that determined the response for which there was disagreement between the pathologists were reread. Details are provided in the Supplementary Appendix.
The primary statistical analysis model used the Cochran-Mantel-Haenszel test to determine response with respect to the biopsy end points.

CC(C)c1cc(Oc2c(Cl)cc(-n3nc(C#N)c(=O)[nH]c3=O)cc2Cl)n[nH]c1=O [Resmetirom, 2-(3,5-dichloro-4-((5-isopropyl-6-oxo-1,6-dihydropyridazin-3-yl)oxy)phenyl)-3,5-dioxo-2,3,4,5-tetrahydro-1,2,4-triazine-6-carbonitrile]
total radioactive dose recovered in feces [1]: approximately 67% | total radioactive dose recovered in urine [1]: 24% | unchanged labeled drug in feces [1]: not detected | unchanged labeled drug, dose recovered in urine [1]: 1% | Body weight, LS mean % CFB ([2]; 80 mg): −1.2% | Body weight, LS mean % CFB difference from PBO ([2]; 80 mg): 0.35% | DBP, LS mean % CFB ([2]; 80 mg): −1.6% | DBP, LS mean % CFB difference from PBO ([2]; 80 mg): −1.5% | Glucose, LS mean % CFB ([2]; 80 mg): 0.72% | Glucose, LS mean % CFB difference from PBO ([2]; 80 mg): 2.9% | HOMA-IR, LS mean % CFB ([2]; 80 mg): 9.1% | HOMA-IR, LS mean % CFB difference from PBO ([2]; 80 mg): −5.3% | HbA1c, LS mean % CFB ([2]; 80 mg): 1.7% | HbA1c, LS mean % CFB difference from PBO ([2]; 80 mg): 0.19% | Heart rate (electrocardiogram), LS mean % CFB ([2]; 80 mg): −1.7% | Heart rate (electrocardiogram), LS mean % CFB difference from PBO ([2]; 80 mg): −1.5% | Insulin, LS mean % CFB ([2]; 80 mg): 2.8% | Insulin, LS mean % CFB difference from PBO ([2]; 80 mg): 2.3% | SBP, LS mean % CFB ([2]; 80 mg): −1.9% | SBP, LS mean % CFB difference from PBO ([2]; 80 mg): 2.7% | Body weight, LS mean % CFB ([2]; 100 mg): −1.8% | Body weight, LS mean % CFB difference from PBO ([2]; 100 mg): −0.88% | DBP, LS mean % CFB ([2]; 100 mg): −2.0% | DBP, LS mean % CFB difference from PBO ([2]; 100 mg): −1.9% | Glucose, LS mean % CFB ([2]; 100 mg): −3.4% | Glucose, LS mean % CFB difference from PBO ([2]; 100 mg): 5.6% | HOMA-IR, LS mean % CFB ([2]; 100 mg): 3.4% | HOMA-IR, LS mean % CFB difference from PBO ([2]; 100 mg): 11.0% | HbA1c, LS mean % CFB ([2]; 100 mg): 1.5% | HbA1c, LS mean % CFB difference from PBO ([2]; 100 mg): 0.05% | Heart rate (electrocardiogram), LS mean % CFB ([2]; 100 mg): 2.6% | Heart rate (electrocardiogram), LS mean % CFB difference from PBO ([2]; 100 mg): −2.4% | Insulin, LS mean % CFB ([2]; 100 mg): 3.3% | Insulin, LS mean % CFB difference from PBO ([2]; 100 mg): 1.8% | SBP, LS mean % CFB ([2]; 100 mg): 2.1% | SBP, LS mean % CFB difference from PBO ([2]; 100 mg): 2.9% | blood pressure ([2]; in vivo): slightly reduced | effect on heart rate or body weight ([2]; in vivo): no effect on heart rate or body weight | Both NASH resolution and fibrosis improvement by ≥1 stage, difference from placebo ([3]; 80 mg): 9.5 percentage points | Both NASH resolution and fibrosis improvement by ≥1 stage, percent with response ([3]; 80 mg): 14.2% | Fibrosis improvement by ≥1 stage with no worsening of NAFLD activity score, difference from placebo ([3]; 80 mg): 10.2 percentage points | Fibrosis improvement by ≥1 stage with no worsening of NAFLD activity score, percent with response ([3]; 80 mg): 24.2% | Improvement in each component of NAFLD activity score, difference from placebo ([3]; 80 mg): 16.1 percentage points | Improvement in each component of NAFLD activity score, percent with response ([3]; 80 mg): 23.3% | Improvement in fibrosis by ≥2 stages, difference from placebo ([3]; 80 mg): 5.6 percentage points | Improvement in fibrosis by ≥2 stages, percent with response ([3]; 80 mg): 8.3% | NASH resolution with no worsening of fibrosis, difference from placebo ([3]; 80 mg): 16.4 percentage points | NASH resolution with no worsening of fibrosis, percent with response ([3]; 80 mg): 25.9% | ≥2-Point improvement in NAFLD activity score with improvement in fibrosis, difference from placebo ([3]; 80 mg): 10.5 percentage points | ≥2-Point improvement in NAFLD activity score with improvement in fibrosis, percent with response ([3]; 80 mg): 18.8% | ≥2-Point improvement in NAFLD activity score with no worsening of fibrosis, difference from placebo ([3]; 80 mg): 20.2 percentage points | ≥2-Point improvement in NAFLD activity score with no worsening of fibrosis, percent with response ([3]; 80 mg): 41.3% | Both NASH resolution and fibrosis improvement by ≥1 stage, difference from placebo ([3]; 100 mg): 11.6 percentage points | Both NASH resolution and fibrosis improvement by ≥1 stage, percent with response ([3]; 100 mg): 16.0% | Fibrosis improvement by ≥1 stage with no worsening of NAFLD activity score, difference from placebo ([3]; 100 mg): 11.8 percentage points | Fibrosis improvement by ≥1 stage with no worsening of NAFLD activity score, percent with response ([3]; 100 mg): 25.9% | Improvement in each component of NAFLD activity score, difference from placebo ([3]; 100 mg): 20.9 percentage points | Improvement in each component of NAFLD activity score, percent with response ([3]; 100 mg): 27.9% | Improvement in fibrosis by ≥2 stages, difference from placebo ([3]; 100 mg): 7.4 percentage points | Improvement in fibrosis by ≥2 stages, percent with response ([3]; 100 mg): 10.1% | NASH resolution with no worsening of fibrosis, difference from placebo ([3]; 100 mg): 20.7 percentage points | NASH resolution with no worsening of fibrosis, percent with response ([3]; 100 mg): 29.9% | ≥2-Point improvement in NAFLD activity score with improvement in fibrosis, difference from placebo ([3]; 100 mg): 13.0 percentage points | ≥2-Point improvement in NAFLD activity score with improvement in fibrosis, percent with response ([3]; 100 mg): 21.2% | ≥2-Point improvement in NAFLD activity score with no worsening of fibrosis, difference from placebo ([3]; 100 mg): 23.8 percentage points | ≥2-Point improvement in NAFLD activity score with no worsening of fibrosis, percent with response ([3]; 100 mg): 44.9%
